Results from paper PMC10528385 (Antiviral research, 2023).

Target: NA of A/Washington/01/2007 A(H3N2), WT (Influenza A virus, UniProt A7UPN3)
Experiment: biochemical

In the case of CC(=O)N[C@H]1[C@H]([C@H](O)[C@H](O)CO)OC(C(=O)O)=C[C@@H]1N=C(N)N [Zanamivir, zanamivir], the IC50 is reported as 1.1 ± 0.1 nM.
